From the Deep4Chem optical property database
Several values for one entry are separate records, joined by “and”; a condition that tells them apart may be missing. Equal values may be shown once. Values belong to the compound of their own block, whether it stands above or below them.

Test: solvent given as SMILES
[1] = in O=P(c1ccccc1)(c1ccccc1)c1ccc2oc3ccc(P(=O)(c4ccccc4)c4ccccc4)cc3c2c1

SMILES: CC1=[N+]2C(=C(c3ccc(C#N)cc3)c3ccc(C)n3[B-]2(F)F)C=C1
fluorescence lifetime (in Cc1ccccc1): 0.55 ns

SMILES: Nc1cccc2cc3ccccc3cc12
fluorescence lifetime (in C1CCCCC1): 29 ns

SMILES: CC1=[N+]2C(=C(c3ccc(N4CCOCC4)cc3)c3ccc(C)n3[B-]2(F)F)C=C1
fluorescence lifetime (in C1CCCCC1): 2.15 ns
fluorescence lifetime (in Cc1ccccc1): 3.12 ns

SMILES: CC1(C)c2ccccc2N(c2ccc(C(=CC#N)c3ccc(N4c5ccccc5C(C)(C)c5ccccc54)cc3)cc2)c2ccccc21
fluorescence lifetime (in Cc1ccccc1): 5.09 ns

SMILES: O=S(=O)([O-])CCC[n+]1c2ccccc2cc2ccccc21
fluorescence lifetime (in O): 31.2 ns

SMILES: CC(C)[Si](C#Cc1ccc(C#C[Si](C(C)C)(C(C)C)C(C)C)c2nc3ccccc3nc12)(C(C)C)C(C)C
fluorescence lifetime (in ClCCl): 0.37 ns

SMILES: N#Cc1cc2ccc([O-])cc2oc1=O
fluorescence lifetime (in O): 3.96 ns

SMILES: COC(=O)c1cc(=O)n(C)c2cc(-c3ccc(N4CCN(C)CC4)cc3)sc12
fluorescence lifetime (in ClCCl): 1.5 ns

SMILES: c1ccc2c(c1)[nH]c1c3[nH]c4ccccc4c3c3nsnc3c21
fluorescence lifetime (in CN(C)C=O): 1.3 ns
fluorescence lifetime (in Cc1ccccc1): 1.02 ns
fluorescence lifetime (in ClCCl): 1.27 ns

SMILES: F[B-]1(F)n2cccc2C=C2C=CC=[N+]21
fluorescence lifetime (in C1CCCCC1): 6.47 ns
fluorescence lifetime (in CC(C)=O): 7.12 ns
fluorescence lifetime (in CCCCCC): 6.79 ns
fluorescence lifetime (in CCO): 7.02 ns
fluorescence lifetime (in CCOC(C)=O): 6.9 ns
fluorescence lifetime (in CO): 7.35 ns and 7.33 ns
fluorescence lifetime (in ClCCl): 6.78 ns
fluorescence lifetime (in OCC(F)(F)F): 8.23 ns

SMILES: CC1(C)c2ccccc2N(c2ccccc2)c2ccc(-c3ccc(C(=O)c4ccc(-c5ccc6c(c5)C(C)(C)c5ccccc5N6c5ccccc5)cc4)cc3)cc21
fluorescence lifetime (in O=P(c1ccccc1)(c1ccccc1)c1ccccc1Oc1ccccc1P(=O)(c1ccccc1)c1ccccc1): 1.87 ns

SMILES: Cc1ccc2c(c1)C(c1ccccc1)(c1ccccc1)c1cc(C)ccc1N2c1ccc2c(c1)N(c1ccccc1)c1ccccc1B2c1c(C(C)C)cc(C(C)C)cc1C(C)C
fluorescence lifetime (in Cc1ccccc1): 5.6 ns
fluorescence lifetime [1]: 8.7 ns

SMILES: Cc1ccc2c(c1)C1(c3ccccc3Oc3ccccc31)c1cc(C)ccc1N2c1ccc(-c2nc(-c3ccccc3)cc(-c3ccccc3)n2)cc1
fluorescence lifetime [1]: 11 ns

SMILES: COc1ccc(C2=C(c3ccccc3)C(c3ccccc3)=[N+]3C2=Nc2c(-c4ccc(OC)cc4)c(-c4ccccc4)c(-c4ccccc4)n2[B-]3(F)F)cc1
fluorescence lifetime (in Cc1ccccc1): 0.26 ns

SMILES: c1ccc([B-]23NC(C4CCCCC4)=Nc4cccc([n+]42)N=C(C2CCCCC2)N3)cc1
fluorescence lifetime (in ClCCl): 4.6 ns

SMILES: c1ccc(-c2ccc(-c3ccc(N(c4ccccc4)c4ccccc4)cc3)c3nsnc23)cc1
fluorescence lifetime (in C1CCOC1): 7.95 ns
fluorescence lifetime (in CC(C)=O): 3.58 ns
fluorescence lifetime (in CCCCCC): 6.77 ns
fluorescence lifetime (in CCOCC): 7.46 ns

SMILES: O=Cc1ccc(C2=C3C=c4c(oc5ccccc45)=[N+]3[B-](F)(F)n3c2cc2c4ccccc4oc23)cc1
fluorescence lifetime (in C1CCCCC1): 2.47 ns
fluorescence lifetime (in C1CCOC1): 2.09 ns
fluorescence lifetime (in CC#N): 2.38 ns
fluorescence lifetime (in CCOC(C)=O): 2.12 ns
fluorescence lifetime (in CN(C)C=O): 2.3 ns
fluorescence lifetime (in CO): 2.73 ns
fluorescence lifetime (in Cc1ccccc1): 2.44 ns
fluorescence lifetime (in ClCCl): 2.49 ns

Further lines, results first:

fluorescence lifetime (in c1cc(-c2cccc(-n3c4ccccc4c4ccccc43)c2)cc(-n2c3ccccc3c3ccccc32)c1): 58 ns
SMILES: CC1(C)c2ccccc2N(c2ccc3c(c2)c2cc(N4c5ccccc5C(C)(C)c5ccccc54)ccc2c2nc4ccccc4nc32)c2ccccc21

fluorescence lifetime (in ClCCl): 3.28 ns
SMILES: CC(C)(C)NC(=O)c1cc2ccccc2c2ccc3c4ccccc4c4ccccc4c3c12

fluorescence lifetime (in CS(C)=O): 0.27 ns
SMILES: COc1ccc(-c2nc3c(c4c2-c2ccc(C#N)cc2CC4)-c2ccc(C#N)cc2CC3)cc1

fluorescence lifetime (in C1CCCCC1): 2.19 ns
fluorescence lifetime (in CCOC(C)=O): 0.54 ns
SMILES: CC1=[N+]2C(=C(NCc3ccccc3)c3ccc(C)n3[B-]2(F)F)C=C1c1cc2n(c1)[B-](F)(F)[N+]1=CC=CC1=C2c1c(C)cc(C)cc1C

fluorescence lifetime (in ClC(Cl)Cl): 5.11 ns
SMILES: CCOC(=O)C1(O)c2cc3ccc4cccc5ccc(c2C(=O)N1C(C)(C)C)c3c45 (configuration not stated)

fluorescence lifetime (in C1CCOC1): 7 ns
SMILES: c1ccc(/C(=C(\c2ccccc2)c2ccccc2-c2ccc(-c3ccccc3)cc2)c2ccccc2-c2ccc(-c3ccccc3)cc2)cc1

fluorescence lifetime (in CC#N): 6.3 ns
SMILES: c1ccc2c(c1)ncc1ccc3cnc4ccccc4c3c12

fluorescence lifetime (in CCO): 0.05 ns
SMILES: CC1(C)CC(/C=C/c2ccc(-n3cccn3)cc2)=CC(=C(C#N)C#N)C1

fluorescence lifetime (in C1CCCCC1): 0.117 ns
fluorescence lifetime (in CC#N): 0.057 ns
fluorescence lifetime (in CCO): 0.065 ns
fluorescence lifetime (in CCOC(C)=O): 0.069 ns
fluorescence lifetime (in CO): 0.057 ns
fluorescence lifetime (in OCC(F)(F)F): 0.072 ns
SMILES: Cc1ccc(C2=C3C=C(I)C=[N+]3[B-](F)(F)n3cc(I)cc32)cc1

fluorescence lifetime (in C1CCOC1): 7.52 ns
fluorescence lifetime (in CN1CCCC1=O): 1.62 ns
fluorescence lifetime (in CN(C)C=O): 0.05 ns
SMILES: O=C1c2ccc3c4c(Oc5ccccc5)cc5c6c(ccc(c7c(Oc8ccccc8)cc(c2c37)C(=O)N1c1ccc(O)cc1)c64)C(=O)N(c1ccc(O)cc1)C5=O

fluorescence lifetime (in CC#N): 4.03 ns
fluorescence lifetime (in CS(C)=O): 3.64 ns
fluorescence lifetime (in ClC(Cl)Cl): 3.93 ns
SMILES: C#CCn1c2ccccc2c2cc(/C=C/c3cc(C)c4n3[B-](F)(F)[N+]3=C(C)C=C(C)C3=C4c3ccc(I)cc3)ccc21

fluorescence lifetime (in ClC(Cl)Cl): 3.05 ns
SMILES: CCC(CC)n1c2ccccc2c2cc3c(cc21)c1ccccc1n3C(CC)CC

fluorescence lifetime (in ClCCl): 1.17 ns
SMILES: c1ccc(N2N=C(c3c4ccccc4cc4ccccc34)CC2c2ccc3ccc4cccc5ccc2c3c45)cc1 (configuration not stated)

fluorescence lifetime (in ClCCl): 5.8 ns
SMILES: COc1ccccc1C1=[N+]2C(=C(c3ccccc3)c3c4ccccc4c(-c4ccccc4OC)n3[B-]2(F)F)c2ccccc21
